One assay deals with DU145. Briefly: YO-PRO cell death/cytotoxicity assay, cisplatin combination. Format: cell-based. The settings on record: DU145, p53 mutated/deficient; 20 nM with cisplatin, 22 hours. On the procedure:
(§1) p53 (TP53) wild-type human lung adenocarcinoma A549 cells are seeded at a density of 5×10^3 cells/100 μl per well in 96-well plates and incubated for 24 hours at 37° C. and 5% CO2. Cells are incubated with suboptimal concentrations of cisplatin (e.g. 3 to 10 μg/ml) either in combination with 20 nM 40-O-(2-hydroxyethyl) rapamycin or with the vehicle-control DMSO for an additional 24 hours. The YO-PRO® assay is performed as above to determine cell death or cytotoxicity and, after cell lysis, the relative cell proliferation. […] In the latter case, incubation with compounds is for 30 hours.
(§2) This procedure is repeated however with the use of p53 (TP53) mutated/deficient tumor cell lines, e.g. PC3M (seeded at a density of 3×10^3 cells/100 μl) or DU145 (seeded at a density of 5×10^3 cells/100 μl:HTB-81; American Type Culture Collection). The incubation with compounds in this case is 22 hours for DU145 or 30 hours for PC3M.

The subject of assay [1] is p53 (TP53) wild-type human lung adenocarcinoma A549 cells. The description is as above. It is filed as cell-based. The protocol: as §1
The subject of assay [2] is A549 cells. Briefly: PARP cleavage immunoblot, gemcitabine combination. It is filed as cell-based, human. Particulars: 20 nM with gemcitabine 5 to 12.5 nM, 72 hours, compared to gemcitabine or the mTOR inhibitor alone. On the procedure:
A549 cells are seeded at a density of 0.1×10^6 cells/10 ml per 10 cm plates and incubated for 24 hours at 37° C. and 5% CO2. Cells are incubated with suboptimal concentrations of gemcitabine (e.g. 5 to 12.5 nM) either in combination with 20 nM 40-O-(2-hydroxyethyl) rapamycin or with the vehicle-control DMSO for an additional 72 hours. Cell extracts corresponding to 50 μg total protein are resolved by 8% SDS-PAGE electrophoresis and immunoblot analysis is performed using rabbit polyclonal antibodies raised against Poly (ADP-Ribose) Polymerase (PARP) (Cell Signalling Technology catalogue #9542). […] This confirms the above results that, in the p53 (TP53) wild-type A549 cells, the presence of the mTOR inhibitor results in higher levels of cell death at suboptimal gemcitabine concentrations.
In general terms: Immunoblotting shows a protein as a band on a membrane.

The subject of assay [3] is p53 (TP53) wild-type MCF7 cells. The experiment in a line: p21 and Bax immunoblot, cisplatin with or without mTOR inhibitor. It is filed as cell-based, human. The settings on record: for Bax protein expression: either agent alone or in combination. On the procedure: (§3) p53 (TP53) wild-type A549 and MCF7 cells are seeded at a density of 0.3×10^6 and 0.4×10^6 cells/4 ml per 6 cm plates, respectively, and incubated for 24 hours at 37° C. and 5% CO2. Cells are incubated with suboptimal concentrations of cisplatin (e.g. 0.5 to 4 μg/ml) either in combination with 20 nM 40-O-(2-hydroxyethyl) rapamycin or with the vehicle-control DMSO for an additional 24 hours and 30 hours, respectively. Cell extracts corresponding to 30 μg total protein are resolved on 15% SDS-PAGE electrophoresis and immunoblot analysis is performed using mouse monoclonal antibodies raised against p21 (Oncogene Research Products, Clone EA10, catalogue #OP64). […] Strikingly, the presence of the mTOR inhibitor, e.g. 40-O-(2-hydroxyethyl) rapamycin, attenuates cisplatin-induced upregulation of p21 protein expression. In contrast, Bax protein expression, a p53-regulated pro-apoptotic protein, is unaffected by either agent alone or in combination. In this assay cytotoxic-induced p21 protein expression is inhibited by the presence of the mTOR inhibitor. This provides an explanation for the enhanced cell killing/apoptotic response observed with cisplatin and mTOR inhibitor combinations.

Assay [4] relates to p53 (TP53) wild-type A549 cells. The assay is described as above. Format: cell-based, human. Particulars: for Bax protein expression: either agent alone or in combination. The protocol:
as §3

For assay [5], the system named is A549 cells. The experiment in a line: PARP cleavage immunoblot, cisplatin combination. It is filed as cell-based, human. The settings on record: 20 nM with cisplatin 0.5 to 4 μg/ml, 24 hours, compared to cisplatin or the mTOR inhibitor alone. On the procedure:
A549 cells are seeded at a density of 0.1×10^6 cells/10 ml per 10 cm plates and incubated for 24 hours at 37° C. and 5% CO2. Cells are incubated with suboptimal concentrations of cisplatin (e.g. 0.5 to 4 μg/ml) either in combination with 20 nM 40-O-(2-hydroxyethyl) rapamycin or with the vehicle-control DMSO for an additional 24 hours. Cell extracts corresponding to 50 μg total protein are resolved on 8% SDS-PAGE electrophoresis and immunoblot analysis is performed using rabbit polyclonal antibodies raised against Poly (ADP-Ribose) Polymerase (PARP) and p53. […] This confirms the above results that, in the p53 (TP53) wild-type A549 cells, the presence of the mTOR inhibitor results in higher levels of cell death at suboptimal cisplatin concentrations.

Assay [6] has as its system p53 (TP53) wild-type human adenocarcinoma A549 (CCL-185) tumor cells. The experiment in a line: YO-PRO cell death/cytotoxicity assay, gemcitabine combination. Format: cell-based. The settings on record: 20 nM with gemcitabine 5 to 17.5 nM, 72 hours, p<0.05, ANOVA with Tukey test. The protocol: (§4) p53 (TP53) wild-type human adenocarcinoma A549 (CCL-185) tumor cells (American Type Culture Collection, Rockville, Md., USA) are seeded at a density of 2×10^3 cells/100 μl per well in 96-well plates and incubated for 24 hours at 37° C. and 5% CO2. Cells are incubated with suboptimal concentrations of gemcitabine (e.g. 5 to 17.5 nM) either in combination with 20 nM 40-O-(2-hydroxyethyl) rapamycin or with the vehicle-control DMSO for an additional 72 hours. YO-PRO dye (YO-PRO^R-1 iodide [491/509], cat #Y3603, Molecular Probes) is added to the cells and a Cytofluor II Fluorescence plate reader is used to determine cell death or cytotoxicity and, after cell lysis, the relative cell proliferation.

A further assay concerns PC3M. Briefly: YO-PRO cell death/cytotoxicity assay, cisplatin combination. Particulars: p53 mutated/deficient, 20 nM with cisplatin, 30 hours. It is filed as cell-based, human. On the procedure: as §1, §2
Assay [7] relates to PC3M human prostate carcinoma cells. The experiment in a line: YO-PRO cell death/cytotoxicity assay, gemcitabine combination. The settings on record: p53 mutated/deficient, 20 nM with gemcitabine. It is filed as cell-based. On the procedure: as §4
(§5) This procedure is repeated however with the use of p53 (TP53) mutated/deficient tumor cell lines, e.g. PC3M human prostate carcinoma cells (seeded at a density of 0.8×10^3 cells/100 μl) or MDA-MB231 human breast carcinoma cells (seeded at a density of 2×10^3 cells/100 μl; HTB-26; American Type Culture Collection).

Assay [8] deals with MDA-MB231 human breast carcinoma cells. Described as above. It is filed as cell-based. Particulars: MDA-MB231, p53 mutated/deficient; 20 nM with gemcitabine. On the procedure:
as §4, §5

Assay [9] concerns p53 (TP53) wild-type A549 cells. The experiment in a line: p53 siRNA transfection, cisplatin treatment, p53/p21/PARP immunoblot. It is filed as cell-based, human. Particulars: A549 untransfected or LacZ siRNA control transfected. On the procedure: p53 (TP53) wild-type A549 cells are seeded at a density of 0.1×10^6 cells/5 ml per 6 cm plates and incubated for 24 hours at 37° C. and 5% CO2. Cells are left untransfected or transiently transfected with 100 nM siRNA targeting either human p53 (Accession number: NM000546; target sequence: 5′-GCA TCT TAT CCG AGT GGA A-3′) or LacZ (Accession number: M55068; target sequence: 5′-GCGGCTGCCGGAATTTACCTT-3′) control siRNA, using Oligofectamine (Invitrogen, Cat # 12252-011). After 30 hours incubation, cells are incubated with increasing concentrations of cisplatin (e.g. 0.5 to 6 μg/ml) for an additional 24 hours. Cell extracts corresponding to 30 μg (p21) and 50 μg (p53 and PARP) total protein are resolved on 15% (p21) and 10% (p53 and PARP) SDS-PAGE electrophoresis, and immunoblot analysis is performed using mouse monoclonal and rabbit polyclonal antibodies raised against p21 and p53/PARP, respectively. […] The same effects on p53 expression, p21 expression and PARP cleavage are also observed with two other siRNA's targeting human p53 (target sequences: 5′-GGA AGA CTC CAG TGG TAA T-3′ and 5′-GAT ATT GAA CAA TGG TTC A-3′).

Assay [10] shares this test system. The experiment in a line: p21 siRNA transfection, cisplatin treatment, p21/PARP immunoblot. The settings on record: A549 untransfected or LacZ siRNA control transfected; cisplatin 1 to 2 μg/ml, 24 hours. Format: cell-based, human. On the procedure:
p53 (TP53) wild-type A549 cells are seeded at a density of 0.1×10^6 cells/5 ml per 6 cm plates and incubated for 24 hours at 37° C. and 5% CO2. Cells are left untransfected or transiently transfected with 100 nM siRNA targeting either p21 (Accession number: NM000389; target sequence: 5′-GTG GAC AGC GAG CAG CTG A-3′) or LacZ (as above) control siRNA, using Oligofectamine (Invitrogen, Cat # 12252-011). After 30 hours incubation, cells are incubated with suboptimal concentrations of cisplatin (e.g. 1 to 2 μg/ml) for an additional 24 hours. Cell extracts corresponding to 30 μg (p21) and 50 μg (PARP) total protein are resolved on 15 and 10% SDS-PAGE electrophoresis, respectively, and immunoblot analysis is performed using mouse monoclonal and rabbit polyclonal antibodies raised against p21 and PARP, respectively.

The mark [11] stands for this setting: cisplatin 0.5 to 6 μg/ml, 24 hours.

For the compound `CO[C@H]1C[C@@H]2CC[C@@H](C)[C@@](O)(O2)C(=O)C(=O)N2CCCC[C@H]2C(=O)O[C@H]([C@H](C)C[C@@H]2CC[C@@H](OCCO)[C@H](OC)C2)CC(=O)[C@H](C)/C=C(\C)[C@@H](O)[C@@H](OC)C(=O)[C@H](C)C[C@H](C)/C=C/C=C/C=C/1C` [40-O-(2-hydroxyethyl) rapamycin], the “potentiation of cell death” value (in the assay with DU145; in the assay with PC3M; in [7]; in assay [8]) was “No striking or consistent potentiation” throughout. Further, in assay [1] (20 nM with cisplatin 3 to 10 μg/ml, 24 hours, p<0.05, ANOVA with Tukey test), the “potentiation of the cell killing effect of suboptimal concentrations of cisplatin” value is recorded as “statistically significant potentiation”. Besides, in assay [1] (p<0.001), the “interaction between RAD001 and cisplatin (two-way ANOVA)” value is listed as “highly significant”. In addition, in the assay on A549 cells [2], the “PARP cleavage (a marker of apoptosis) at suboptimal gemcitabine concentrations” value is reported as “increased PARP cleavage”. Moreover, the “cisplatin-induced upregulation of p21 protein expression” value in assay [3] (20 nM with cisplatin 0.5 to 4 μg/ml, 30 hours) was “attenuates”; in [4] (20 nM with cisplatin 0.5 to 4 μg/ml, 24 hours) it was “attenuates”. The Bax protein expression result in [3] and in assay [4] was “unaffected” in each case. Besides, in the assay on A549 cells [5], the “PARP cleavage (a marker of apoptosis) at suboptimal cisplatin concentrations” value is “increased PARP cleavage”. Further, the “potentiation of the cell killing effect of suboptimal concentrations of gemcitabine” value in assay [6] is listed as “statistically significant potentiation”.

Take `N.N.[Cl][Pt][Cl]` [cisplatin]: the results for the “PARP cleavage (a marker of apoptosis)” value in assay [9] (at higher cisplatin concentrations (2 to 6 μg/ml)) and in [10] were “evidence of PARP cleavage” and “little evidence of PARP cleavage”, respectively. Further, the p21 protein expression entry in assay [9] (setting [11]) was “induces p53 and p21 protein expression in a concentration-dependent manner”; in [3] (cisplatin alone 0.5 to 4 μg/ml, 30 hours) it was “induces increased p21 protein expression in a concentration-dependent manner”; in assay [4] (cisplatin alone 0.5 to 4 μg/ml, 24 hours), “induces increased p21 protein expression in a concentration-dependent manner”; in [10] it was “induces p21 protein expression in a concentration-dependent manner”. In addition, the p53 protein expression result in assay [9] (setting [11]) is “induces p53 and p21 protein expression in a concentration-dependent manner”. In addition, the Bax protein expression entry in assay [3] and in assay [4] was “unaffected” each time.

For the origin of these results see patent US7749698B2, “p53 wild-type as biomarker for the treatment with mTOR inhibitors in combination with a cytotoxic agent” (Novartis AG, priority 2004, dated 2010).
